According to patent US7008627B1, “Use of complexes for the preparation of compositions for the treatment of sensitive skin, preparation process and hypoallergenic compositions” (Johnson & Johnson Consumer France, priority 1996, dated 2006):
“And” between values parts separate entries of the source, which are not always exact repeats. Identical values can stand only once.

Legend:
keratinocytes = test: Dose effect of K18 on the inflammatory functions of the keratinocytes (FIG. 1); type: cell-based, human
Method: FIG. 1: Dose effect of carboxymethyl-β-glucan with respect to the inflammatory functions of the keratinocytes.
Consequently, the effects of the product K18 were evaluated as a function of the dose. The results are illustrated in FIG. 1.

[1] = test system: nitro derivatives (NO2^−); test: Production of nitro derivatives by macrophages after stimulation by IL-4 and IgE-containing immune complexes; type: cell-based, human; settings: for Production of nitro derivatives (NO2^−): macrophages stimulated by IgE-containing immune complexes (IL-4), Expt-1 to Expt-4
Method: (§1) To evaluate the allergic inflammation, the cells are activated by IL-4, which induces the CD23 receptor, and then by IgE-containing immune complexes. In all cases, the cellular supernatants are analysed after the activation.
(§2) The following products were used during this study: Escherichia coli LPS (Sigma), used at 1 μg/ml. IFN-γ and IL-4 are sourced from Immugenex (Los Angeles Calif.) and are used respectively at 1000 U/ml and 10 ng/ml, the monoclonal IgEs are sourced from Stallergene (Fresnes, France) and the anti-IgEs are from Nordic (Tilburg, Holland).
(§3) The macrophage cells are obtained from the peripheral blood of normal donors (non-allergic). The mononuclear cells are isolated on a ficoll gradient and the ring of lymphoid cells is recovered and washed three times and the cells are then cultured so as to cause the macrophage cells to adhere. These cells are recovered after adhering for 1 hour and are cultured (10^6 cells/ml/well). If appropriate, in the case of stimulation by IL-4, the presence of the IgE receptor (CD23) at the surface of the cells is verified by immunolabelling.
(§4) The cells are activated by the combination of IFN-γ and LPS for 3 to 4 days and the supernatants of these cultures are then recovered in order to quantitatively determine the nitrogeneous derivatives and TNF-α. Likewise, during stimulation by IgE, the cells are first activated by IL-4, so as to induce the CD23, and are then subsequently cultured and stimulated by the IgE-containing immune complexes for 3 to 5 days before recovering the different supernatants. In all the cases, cellular viability is achieved on conclusion of these cultures. In the specific case of macrophages, a long-term (7 to 12 days) viability study was carried out, so as to determine the protective effects of these products. Quantitative determination of the nitrogenous derivatives is carried out using the Griess approach and the TNF level is measured by using quantitative determination kits from Medgënix (Fleurus, Belgium).
On completion of this culturing period, 30 to 80% of the keratinocytes and of the macrophages express CD23. The individual variations are in no case the reflection of a different allergic situation between these individuals.
After the CD23 has been taken up by IgE-containing immune complexes, the production of a large number of mediators and cytokines (in particular TNF) and of products resulting from the oxidative metabolism, such as nitrogenous derivatives, is induced. This stimulation redefines in vitro an allergic-type inflammatory reaction.
(§5) On completion of this culturing period, 30 to 80% of the keratinocytes and of the macrophages express CD23. The individual variations are in no case the reflection of a different allergic situation between these individuals. […]

TNF [2] = test: Production of TNF by macrophages after stimulation by IFN-γ + LPS; type: cell-based, human; settings: for effect on the production of TNF: macrophages stimulated by IFN-γ and LPS
From the text: (§6) The activities of the test products are therefore investigated with respect to human macrophage and keratinocyte cultures which are or are not stimulated by intereferon-γ+lipopolysaccharide (non-specific inflammation or by IL-4 (allergic inflammation). This type of stimulation places the cells in the context of a pro-oxidizing response (generation of NO or superoxide anion free radicals, which can be evaluated by measuring the production of nitrogeneous derivatives) and an immuno-inflammatory response (production of cytokines such as TNF-α).
as §2, §3
as §4, with “In all the cases, cellular viability is achieved on conclusion of these cultures. In the specific case of macrophages, a long-term (7 to 12 days) viability study was carried out, so as to determine the protective effects of these products.” left out, “Belgium). […]” for “Belgium).”

[3] = test system: nitro derivatives (NO2^−); test: Production of nitro derivatives by keratinocytes after stimulation by IFN-γ + LPS; type: cell-based, human; settings: for Production of nitro derivatives (NO2^−), value between brackets / Production of nitro derivatives (NO2^−): Table 5A, + 10 mg/ml of the product; for Production of nitro derivatives (NO2^−), value between brackets: keratinocytes not stimulated by IFN-γ + LPS; for Production of nitro derivatives (NO2^−): keratinocytes stimulated by IFN-γ + LPS, Expt-1 to Expt-4; for effect on the production of nitro derivatives / NO: keratinocytes stimulated by IFN-γ and LPS
From the text: as §6, §2
(§7) The confluent keratinocyte cultures are trypsinized and transferred into 24-well plates in fresh medium at the cellular density of 10^5 cells/ml/well. If appropriate, in the case of stimulation by IL-4, the presence of the IgE receptor (CD23) at the surface of the cells is verified by immunolabeling.
as §4
(§8) In this study, the product H37 (10 mg/ml) is added 30 min before stimulation by IFN-γ+LPS.
(§9) In this study, the products (10 mg/ml or 1/100 v/v) are added 30 min before stimulation by IFN-γ+LPS. In none of the cases have these products shown a cytotoxic activity.

TNF [4] = test: Production of TNF by keratinocytes after stimulation by IL-4 and IgE-containing immune complexes; type: cell-based, human
Method: as §1, §2, §7, §4, §5

[5] = test system: nitro derivatives (NO2^−); test: Production of nitro derivatives by macrophages after stimulation by IFN-γ + LPS; type: cell-based, human; settings: for Production of nitro derivatives (NO2^−), value between brackets: Table 5A, macrophages not stimulated by IFN-γ + LPS, + 10 mg/ml of the product; for effect on the production of nitro derivatives: macrophages stimulated by IFN-γ and LPS
From the text: as §6, §2, §3, §4, §8, §9

TNF [6] = test: Production of TNF by macrophages after stimulation by IL-4 and IgE-containing immune complexes; type: cell-based, human
Method: as §1, §2
The macrophage cells are obtained from the peripheral blood of normal donors (non-allergic). The mononuclear cells are isolated on a ficoll gradient and the ring of lymphoid cells is recovered and washed three times and the cells are then cultured so as to cause the macrophage cells to adhere. These cells are recovered after adhering for 1 hour and are cultured (10^6 cells/ml/well). […]
(§10) The cells are activated by the combination of IFN-γ and LPS for 3 to 4 days and the supernatants of these cultures are then recovered in order to quantitatively determine the nitrogeneous derivatives and TNF-α. […] Quantitative determination of the nitrogenous derivatives is carried out using the Griess approach and the TNF level is measured by using quantitative determination kits from Medgënix (Fleurus, Belgium). […]

TNF [7] = test: Production of TNF by keratinocytes after stimulation by IFN-γ + LPS; type: cell-based, human; settings: for Production of TNF: keratinocytes stimulated by IFN-γ + LPS, Expt-1 to Expt-4; for effect on the production of TNF: keratinocytes stimulated by IFN-γ and LPS
From the text: as §6, §2, §7, §4, §8, §9

[8] = test system: nitro derivatives (NO2^−); test: Production of nitro derivatives by keratinocytes after stimulation by IL-4 and IgE-containing immune complexes; type: cell-based, human
Method: as §1, §2, §7, §10

[9] = test system: keratinocytes and macrophages; test: Overall anti-inflammatory activity (non-specific and allergic) on stimulated keratinocytes and macrophages; type: cell-based, human; settings: conclusion from the IFN-γ + LPS (non-specific) and IL-4/IgE (allergic) models
From the text: as §6, §1
The cells are activated by the combination of IFN-γ and LPS for 3 to 4 days and the supernatants of these cultures are then recovered in order to quantitatively determine the nitrogeneous derivatives and TNF-α. […] Quantitative determination of the nitrogenous derivatives is carried out using the Griess approach and the TNF level is measured by using quantitative determination kits from Medgënix (Fleurus, Belgium).

PGE2 = test: Summary table: anti-inflammatory activity, PGE2; type: cell-based; settings: result in words
From the text: (§11) It is possible in particular to operate on keratinocytes and macrophage cells because these are cells which are essential for the development of a local inflammatory reaction. Moreover, macrophages are particularly advantageous cells because, due to the fact that these are resident cells in the skin, they regulate not only local inflammatory reactions but they also regulate the immune responses by their ability to present the antigen and to produce a great number of cytokines which regulate local immunity. These macrophages are also involved in communications with the circulatory system which can, if appropriate, mobilize different cell types (monocytes, neutrophils, eosinophils and T lymphocytes), thus increasing the non-specific and specific defensive power of the tissue under consideration.
as §6

TNF-α = test: Summary table: anti-inflammatory activity, TNF-α; type: cell-based, human; settings: result in words
From the text: as §11, §6

IL-1α = test: Summary table: anti-inflammatory activity, IL-1α; type: cell-based; settings: result in words
From the text: as §11, §6

LTB4 = test: Summary table: anti-inflammatory activity, LTB4; type: cell-based; settings: result in words
From the text: as §11, §6

[10] = test system: peroxidation of the lipids; test: Summary table: anti-free radicals activity, peroxidation of the lipids; settings: result in words
glutathione peroxidase = test: Summary table: anti-free radicals activity, glutathione peroxidase; settings: result in words
From the text: (§12) Enzymes which are active in endogenous defence systems against free radicals are, for example, SOD (or superoxide -disumtase), catalase or glutathione peroxidase; attempts will be made to stimulate the production of these enzymes or they can be introduced exogeneously.

NO = test: Summary table: anti-free radicals activity, NO; type: cell-based, human; settings: result in words
From the text: as §11, §6

catalase = test: Summary table: anti-free radicals activity, catalase; settings: result in words
From the text: as §12

[11] = test system: mixed lympho-epidermal cultures (MLEC); test: Summary table: anti-allergic activity, mixed lympho-epidermal cultures (MLEC), lymphocyte proliferation; type: cell-based; settings: result in words
From the text: The activity of the components is also confirmed on mixed lympho-epidermal cultures (MLEC).
In the skin, Langherans cells indeed play an essential role in the […] of the antigen and keratinocytes generate factors which are involved in the immune response, thus constituting a cutaneous immune system. MLECs make it possible to determine the immuno-modulatory properties of substance by measuring the lymphocyte proliferation induced by the antigen-presenting allogenic epidermal cells, with or without treatment by the substance.

[12] = Table 6A, + 10 mg/ml of the product
[13] = keratinocytes stimulated by IL-4
[14] = Table 5B, + 10 mg/ml of the product

Carboxymethyl-β-glucan [K18]
generation of TNF as a function of the dose (keratinocytes): inhibits, in a dose-dependent way
generation of nitro derivatives as a function of the dose (keratinocytes): inhibits, in a dose-dependent way
Production of nitro derivatives (NO2^−), value between brackets ([1]; Table 6A, macrophages not stimulated by IgE-containing immune complexes, + 10 mg/ml of the product): 2 µM and 4 µM
Production of nitro derivatives (NO2^−) [1, 12]: 7 µM and 6 µM and 10 µM
effect on the production of nitro derivatives ([1]; macrophages stimulated by IL-4): inhibitory activity
effect on the production of TNF (TNF [2]): efficiently inhibit
Production of nitro derivatives (NO2^−), value between brackets [3]: 1 µM
Production of nitro derivatives (NO2^−) [3]: 13 µM and 14 µM and 11 µM and 7 µM
effect on the production of nitro derivatives / NO [3]: high ability to inhibit
effect on the production of TNF (TNF [4]; [13]): inhibitory activity
Production of nitro derivatives (NO2^−), value between brackets [5]: 1 µM and 2 µM
effect on the production of nitro derivatives [5]: high ability to inhibit
effect on the production of TNF (TNF [6]; macrophages stimulated by IL-4): inhibitory activity
Production of TNF (TNF [7]; [14]): 130 pg/mL and 95 pg/mL and 85 pg/mL and 82 pg/mL
effect on the production of TNF (TNF [7]): efficiently inhibit
Production of nitro derivatives (NO2^−), value between brackets ([8]; Table 6A, keratinocytes not stimulated by IgE-containing immune complexes, + 10 mg/ml of the product): 2 µM and 4 µM
effect on the production of nitro derivatives [8, 13]: inhibitory activity
anti-inflammatory activity [9]: non-specific and allergic-type anti-inflammatory activity

poly-β(1→3)-glucopyranose [K17]
Production of nitro derivatives (NO2^−) [1, 12]: 16 µM and 17 µM and 19 µM and 30 µM
Production of TNF (TNF [2]; Table 5B, macrophages stimulated by IFN-γ + LPS, + 10 mg/ml of the product, Expt-1 to Expt-4): 605 pg/mL and 902 pg/mL and 970 pg/mL and 695 pg/mL
effect on the production of TNF (TNF [2]): efficiently inhibit
Production of nitro derivatives (NO2^−), value between brackets [3]: 2 µM and 1 µM
Production of nitro derivatives (NO2^−) [3]: 15 µM and 16 µM and 8 µM
effect on the production of nitro derivatives / NO [3]: high ability to inhibit
Production of TNF, value between brackets (TNF [4]; Table 6B, keratinocytes not stimulated by IgE-containing immune complexes, + product): 35 pg/mL and 31 pg/mL and 32 pg/mL and 40 pg/mL
Production of TNF (TNF [4]; Table 6B, keratinocytes stimulated by IL-4 / IgE-containing immune complexes, + product, Expt-1 to Expt-4): 185 pg/mL and 111 pg/mL and 120 pg/mL and 132 pg/mL
Production of nitro derivatives (NO2^−), value between brackets [5]: 2 μM and 1 μM and 1.5 μM and 2 (2) μM
effect on the production of nitro derivatives [5]: high ability to inhibit
Production of TNF, value between brackets (TNF [6]; Table 6B, macrophages not stimulated by IgE-containing immune complexes, + product): 45 pg/mL and 41 pg/mL and 32 pg/mL
Production of TNF, value between brackets (TNF [7]; Table 5B, keratinocytes not stimulated by IFN-γ + LPS, + 10 mg/ml of the product, ND = non-detectable): 95 pg/mL
Production of TNF (TNF [7]; [14]): 125 pg/mL and 98 pg/mL and 100 pg/mL and 70 pg/mL
effect on the production of TNF (TNF [7]): efficiently inhibit
anti-inflammatory activity [9]: only has a non-specific anti-inflammatory activity

β-Glucan
Anti-inflammatory: PGE2 (PGE2): inhibition
Anti-inflammatory: TNF-α (TNF-α): inhibition
Anti-inflammatory: IL-1α (IL-1α): inhibition
Anti-inflammatory: LTB4 (LTB4): no effect
Anti-free radicals: peroxidation of the lipids [10]: no effect
Anti-free radicals: glutathione peroxidase (glutathione peroxidase): stimulation
Anti-free radicals: NO (NO): inhibition
Anti-free radicals: catalase (catalase): stimulation
Anti-allergic: MLEC [11]: no effect
